# Measurements as given in US20230024108A1, “ADENOSINE A2A RECEPTOR ANTAGONISTS” (Teon Therapeutics, Inc., priority 2019, published 2023).
# Structures can show the parent of a compound that is named as a salt.
# Experiments:
# human A2A AdoR = biological target: T1, human A2A AdoR (Homo sapiens, UniProt P29274); assay: Adenosine receptor binding assay, A2A ([3H]-CGS-21680); details: membranes of HEK-293 cells expressing human A2A AdoR; read-out: hA2A IC50
# T1 construct: purchased PerkinElmer RBHA2AM400UA
# Description: (§1) Membranes prepared from CHO-K1 cells stably expressing Human AiAdoR (ES-010-M400UA), HEK-293 cells stably expressing human A2A AdoR (RBHA2AM400UA), HEK-293 cells stably expressing human A2B AdoR (ES-013-M400UA) and CHO-K1 cells stably expressing Human A3 AdoR (ES-012-M400UA) were purchased from PerkinElmer (Waltham, Mass., USA) and stored at −80° C. until use. Binding assays are performed using the radioligands. The final concentrations are as follows: [3H]-DPCPX (PerkinElmer, NET974001MC) at 1 nM for A1AdoR; [^3H]-CGS-21680 (PerkinElmer, NET1021250UC) at 6 nM for A2AAdoR, [3H]-DPCPX (PerkinElmer, NET974001MC) at 8 nM for A2BAdoR; [^3H]-HEMADO (ARC, Cat: ART1456) at 1 nM for A3AdoR. Testing compounds are diluted with DMSO to make 8-point 4-fold serial dilution. Nonspecific binding (Low control: LC) and total binding (High control: HC) are determined in the presence or absence of saturated cold ligand. Specific binding is calculated by subtracting nonspecific binding from total binding. All assays are performed in a final volume of 200 μl containing 1 μl of the test compound in DMSO, 100 μl of membrane preparation, and 99 μl of the radioligand in assay buffer (A1AdoR: 25 mM HEPES pH 7.4, 5 mM MgCl2, 1 mM CaCl2), 100 mM NaCl; A2AAdoR: 50 mM Tris HCl pH 7.4, 10 mM MgCl2, 1 mM EDTA; A2BAdoR: 50 mM HEPES pH 7.0, 5 mM MgCl2, 1 mM EDTA; A3AdoR: 25 HEPES pH 7.4, 10 mM MgCl2, 1 mM CaCl2), 0.5% BSA). The incubation is performed at room temperature with shaking at 300 rpm for 1 hour for A1AdoR, A2BAdoR and A3AdoR and 2 hours for A2AAdoR. After the incubation, the assay mixture is filtered through 96 GF/C filter plates (Perkin Elmer #6005174) using Perkin Elmer Filtermate Harvester, and then washed four times with ice-cold washing buffer (A1AdoR: 25 mM HEPES pH 7.4, 5 mM MgCl2, 1 mM CaCl2), 100 mM NaCl; A2AAdoR: 50 mM Tris HCl pH 7.4, 154 mM NaCl; A2BAdoR: 50 mM HEPES pH 6.5, 5 mM MgCl2, 1 mM EDTA, 0.2% BSA; A3AdoR: 50 mM Tris HCl pH 7.4). The filters are dried for 1 hour at 50° C. and [^3H] trapped on filter counted for radioactivity in Perkin Elmer Microscint 20 cocktail (#6013329) using Perkin Elmer MicroBeta2 Reader. The results are expressed as a percent inhibition of the control radioligand specific binding calculated using the following equation: % Inhibition=(1−(Assay well-Average_LC)/(Average_HC−Average_LC))×100%. Data are analyzed and IC50 is calculated using GraphPad Prism 5 and the model “log(inhibitor) vs. response—Variable slope”. The binding affinity of the compounds is determined by using the Cheng and Prusoff equation Ki=IC50/(1+[radioligand]/Kd).
# A1AdoR = biological target: T2, A1AdoR (Homo sapiens, UniProt P30542); assay: Adenosine receptor binding assay, A1 ([3H]-DPCPX); details: ratio A1 vs A2A binding
# T2 construct: purchased PerkinElmer ES-010-M400UA
# T2 sequence (P30542 1-326): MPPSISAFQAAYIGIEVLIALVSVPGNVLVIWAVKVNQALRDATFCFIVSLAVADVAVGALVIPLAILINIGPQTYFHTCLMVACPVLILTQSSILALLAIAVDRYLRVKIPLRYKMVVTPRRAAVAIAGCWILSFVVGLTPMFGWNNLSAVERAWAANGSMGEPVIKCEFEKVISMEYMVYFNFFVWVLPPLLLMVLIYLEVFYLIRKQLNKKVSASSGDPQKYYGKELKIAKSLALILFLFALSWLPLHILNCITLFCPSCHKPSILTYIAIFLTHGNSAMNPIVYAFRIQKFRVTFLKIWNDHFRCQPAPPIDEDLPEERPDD
# Description: as §1
# T1 sequence (P29274 whole entry): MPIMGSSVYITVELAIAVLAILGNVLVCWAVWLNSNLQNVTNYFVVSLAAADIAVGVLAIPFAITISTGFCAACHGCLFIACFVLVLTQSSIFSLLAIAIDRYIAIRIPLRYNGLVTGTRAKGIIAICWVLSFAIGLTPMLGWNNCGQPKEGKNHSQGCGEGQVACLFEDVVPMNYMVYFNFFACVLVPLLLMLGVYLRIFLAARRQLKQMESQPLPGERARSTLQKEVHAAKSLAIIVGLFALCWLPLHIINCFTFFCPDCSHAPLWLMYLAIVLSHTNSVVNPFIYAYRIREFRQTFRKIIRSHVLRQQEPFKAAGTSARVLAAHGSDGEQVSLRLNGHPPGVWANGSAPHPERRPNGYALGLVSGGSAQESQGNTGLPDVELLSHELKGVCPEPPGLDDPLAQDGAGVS
IC50 (human A2A AdoR),SMILES,A1/A2A Selectivity (A1AdoR)
> 100 nM,"Cc1noc2cc(F)c(N3CCCN(CCn4c(C(=O)O)c(Cl)c5c4nc(N)n4nc(-c6ccccn6)nc54)CC3)cc12 [5-amino-9-chloro-7-(2-(4-(6-fluoro-3-methylbenzo[d]isoxazol-5-yl)-1,4-diazepan-1-yl)ethyl)-2-(pyridin-2-yl)-7H-pyrrolo[3,2-e][1,2,4]triazolo[1,5-c]pyrimidine-8-carboxylic acid]",c (greater than 0 but less than or equal to 100)
≤ 20 nM,"Cc1noc2cc(F)c(N3CCN(CCn4c(OC=O)c(Cl)c5c4nc(N)n4nc(-c6ccccn6)nc54)CC3)cc12 [5-amino-9-chloro-7-(2-(4-(6-fluoro-3-methylbenzo[d]isoxazol-5-yl)piperazin-1-yl)ethyl)-2-(pyridin-2-yl)-7H-pyrrolo[3,2-e][1,2,4]triazolo[1,5-c]pyrimidin-8-yl formate]",a (greater than 1000)
≤ 20 nM,"Cc1c(C(N)=O)n(CCN2CCN(c3ccncc3)CC2)c2nc(N)n3nc(-c4ccccn4)nc3c12 [5-amino-9-methyl-2-(pyridin-2-yl)-7-(2-(4-(pyridin-4-yl)piperazin-1-yl)ethyl)-7H-pyrrolo[3,2-e][1,2,4]triazolo[1,5-c]pyrimidine-8-carboxamide]",c (greater than 0 but less than or equal to 100)
≤ 20 nM,"Cc1c(C(N)=O)n(CCN2CCN(c3ncccn3)CC2)c2nc(N)n3nc(-c4ccccn4)nc3c12 [5-amino-9-methyl-2-(pyridin-2-yl)-7-(2-(4-(pyrimidin-2-yl)piperazin-1-yl)ethyl)-7H-pyrrolo[3,2-e][1,2,4]triazolo[1,5-c]pyrimidine-8-carboxamide]",b (greater than 100 but less than or equal to 1000)
≤ 20 nM,"Cc1c(C(=O)O)n(CCN2CCN(c3ncccn3)CC2)c2nc(N)n3nc(-c4ccccn4)nc3c12 [5-amino-9-methyl-2-(pyridin-2-yl)-7-(2-(4-(pyrimidin-2-yl)piperazin-1-yl)ethyl)-7H-pyrrolo[3,2-e][1,2,4]triazolo[1,5-c]pyrimidine-8-carboxylic acid]",b (greater than 100 but less than or equal to 1000)
≤ 20 nM,"Cc1cn(CCN2CCCN(c3cc(-c4ncco4)ccc3F)CC2)c2nc(N)n3nc(-c4ccccn4)nc3c12 [7-(2-(4-(2-fluoro-5-(oxazol-2-yl)phenyl)-1,4-diazepan-1-yl)ethyl)-9-methyl-2-(pyridin-2-yl)-7H-pyrrolo[3,2-e][1,2,4]triazolo[1,5-c]pyrimidin-5-amine]",c (greater than 0 but less than or equal to 100)
≤ 20 nM,"Nc1nc2c(ncn2CCN2CCN(c3cc(-c4ncco4)ccc3F)CC2)c2nc(C#CC3CC3)nn12 [8-(cyclopropylethynyl)-3-(2-(4-(2-fluoro-5-(oxazol-2-yl)phenyl)piperazin-1-yl)ethyl)-3H-[1,2,4]triazolo[5,1-i]purin-5-amine]",b (greater than 100 but less than or equal to 1000)
≤ 20 nM,"Cc1cnc2c(c1)CN(CCn1nc(Cl)c3c1nc(N)n1nc(-c4ccccn4)nc31)CC2 [9-chloro-7-(2-(3-methyl-7,8-dihydro-1,6-naphthyridin-6(5H)-yl)ethyl)-2-(pyridin-2-yl)-7H-pyrazolo[4,3-e][1,2,4]triazolo[1,5-c]pyrimidin-5-amine]",c (greater than 0 but less than or equal to 100)
≤ 20 nM,"COC(=O)c1cc2c(nc(N)n3nc(-c4ccccn4)nc23)n1CCN1CCN(c2cc(-c3ncco3)ccc2F)CC1 [methyl 5-amino-7-(2-(4-(2-fluoro-5-(oxazol-2-yl)phenyl)piperazin-1-yl)ethyl)-2-(pyridin-2-yl)-7H-pyrrolo[3,2-e][1,2,4]triazolo[1,5-c]pyrimidine-8-carboxylate]",a (greater than 1000)
≤ 20 nM,"COC(=O)c1c(C)c2c(nc(N)n3nc(-c4ccccn4)nc23)n1CCN1CCN(c2cc(C)ncc2F)CC1 [methyl 5-amino-7-(2-(4-(5-fluoro-2-methylpyridin-4-yl)piperazin-1-yl)ethyl)-9-methyl-2-(pyridin-2-yl)-7H-pyrrolo[3,2-e][1,2,4]triazolo[1,5-c]pyrimidine-8-carboxylate]",a (greater than 1000)
≤ 20 nM,"COC(=O)c1c(C)c2c(nc(N)n3nc(-c4ccccn4)nc23)n1CCN1CCCN(c2cc3c(C)noc3cc2F)CC1 [methyl 5-amino-7-(2-(4-(6-fluoro-3-methylbenzo[d]isoxazol-5-yl)-1,4-diazepan-1-yl)ethyl)-9-methyl-2-(pyridin-2-yl)-7H-pyrrolo[3,2-e][1,2,4]triazolo[1,5-c]pyrimidine-8-carboxylate]",b (greater than 100 but less than or equal to 1000)
≤ 20 nM,"COC(=O)c1c(Cl)c2c(nc(N)n3nc(-c4ccccn4)nc23)n1CCN1CCN(c2cc(-c3ncco3)ccc2F)CC1 [methyl 5-amino-9-chloro-7-(2-(4-(2-fluoro-5-(oxazol-2-yl)phenyl)piperazin-1-yl)ethyl)-2-(pyridin-2-yl)-7H-pyrrolo[3,2-e][1,2,4]triazolo[1,5-c]pyrimidine-8-carboxylate]",a (greater than 1000)
